This passage reports IC50 results from ChEMBL document CHEMBL1148145, “2,3,4-Trimethyl-5,7-dihydroxy-2,3-dihydrobenzofuran, a novel antioxidant, from Penicillium citrinum F5” (J Nat Prod, 2002).

Molecules are shown by their SMILES. pIC50: −log10 of the molar value.

The test deals with Radical scavenging activity. The test can be described thus: Antioxidant activity assessed as DPPH radical scavenging activity after 30 mins by spectrophotometry. The test is classed as functional. In general terms: DPPH is a stable violet radical that fades when it is reduced.

For orientation: pIC50 means the negative decadic logarithm of the IC50, by convention in mol/L.

For the molecule `Cc1c(O)cc(O)c2c1[C@@H](C)[C@H](C)O2`, the pIC50 is 4.98.
As to `CC(C)(Sc1cc(C(C)(C)C)c(O)c(C(C)(C)C)c1)Sc1cc(C(C)(C)C)c(O)c(C(C)(C)C)c1` [PROBUCOL], the negative logarithm of the IC50 (pIC50) was 4.44.
As for `O=C1O[C@H]([C@@H](O)CO)C(O)=C1O` [ASCORBIC ACID], the negative logarithm of the IC50 (pIC50) is 5.05.
Under `O=C(O)c1cc(O)ccc1O` [GENTISIC ACID] stands 5.37; under `Cc1c(C)c2c(c(C)c1O)CCC(C)(C(=O)O)O2` (stereo not given) [TROLOX], 5.06.
